Results from paper PMC12203862, “BroadAMP-GPT: AI-Driven generation of broad-spectrum antimicrobial peptides for combating multidrug-resistant ESKAPE pathogens” (Gut Microbes, 2025).
In brackets after ≈: the same amount, converted by molar mass. Where two headings read alike, the source gives them in different places.

What was measured:
S. suis P1/7 = assay: microbe, parasite or virus in culture; conditions: Streptococcus suis, P1/7
Experimental: (§1) Bacterial strains and growth conditions: All Gram-negative and Gram-positive bacterial strains (Supplementary Table S8) were cultured in Luria-Bertani (LB) or trypticase soy broth (TSB) agar plates, respectively, and incubated overnight at 37 °C unless specifically indicated. A single colony of the tested bacterial strains was inoculated into medium broth with shaking at 220 rpm for further experiments.
Minimal inhibitory concentrations: Antimicrobial susceptibility testing was performed by broth microdilution method for AMPs against Gram-positive and Gram-negative pathogens above mentioned, following the methods of document CLSI M100-ED34.[43] The MICs were defined as the lowest concentrations that inhibit visible growth of the tested bacteria.

S. enteritis S1 = assay: organism not typed; format: cell-based; conditions: Table 1; S. enteritis S1; broth microdilution; read-out: MIC
Experimental: as §1
(§2) Minimal inhibitory concentrations: Antimicrobial susceptibility testing was performed by broth microdilution method for AMPs against Gram-positive and Gram-negative pathogens above mentioned, following the methods of document CLSI M100-ED34.[43] The MICs were defined as the lowest concentrations that inhibit visible growth of the tested bacteria. E. coli ATCC 25,922 and S. aureus ATCC 29,213 were served as quality controls.

E. faecalis SF23-1 = assay: microbe, parasite or virus in culture; format: cell-based; conditions: Enterococcus faecalis, SF231
Experimental: as §1, §2

P. aeruginosa PA14 = assay: microbe, parasite or virus in culture; format: cell-based; conditions: Pseudomonas aeruginosa; Table 1; P. aeruginosa PA14; broth microdilution; read-out: MIC
Experimental: as §1, §2

S. pyogenes DL02 = assay: microbe, parasite or virus in culture; format: cell-based; conditions: Streptococcus pyogenes
Experimental: as §1, §2

S. aureus M147-2 = assay: microbe, parasite or virus in culture; format: cell-based; conditions: Staphylococcus aureus, M1472
Experimental: as §1, §2

K. pneumoniae 9-1 = assay: microbe, parasite or virus in culture; format: cell-based; conditions: Klebsiella pneumoniae, 91; Table 1; K. pneumoniae 9-1; broth microdilution; read-out: MIC
Experimental: as §1, §2

S. agalactiae DL03 = assay: microbe, parasite or virus in culture; format: cell-based; conditions: Streptococcus agalactiae
Experimental: as §1, §2

S. aureus YZSA-24 = assay: microbe, parasite or virus in culture; format: cell-based; conditions: Staphylococcus aureus, YZSA24
Experimental: as §1, §2

S. aureus YZSA-15 = assay: microbe, parasite or virus in culture; format: cell-based; conditions: Staphylococcus aureus, YZSA15
Experimental: as §1, §2

A. baumannii 7979 = assay: microbe, parasite or virus in culture; format: cell-based; conditions: Acinetobacter baumannii; Table 1; A. baumannii 7979; broth microdilution; read-out: MIC
Experimental: as §1, §2

P. aeruginosa PAO1 = assay: microbe, parasite or virus in culture; format: cell-based; conditions: Pseudomonas aeruginosa; Table 1; P. aeruginosa PAO1; broth microdilution; read-out: MIC
Experimental: as §1, §2

S. aureus M92-1 = assay: microbe, parasite or virus in culture; format: cell-based; conditions: Staphylococcus aureus, M921
Experimental: as §1, §2

E. faecalis JH2-2 = assay: microbe, parasite or virus in culture; format: cell-based; conditions: Enterococcus faecalis, JH22
Experimental: as §1, §2

S. aureus YZSA-21 = assay: microbe, parasite or virus in culture; format: cell-based; conditions: Staphylococcus aureus, YZSA21
Experimental: as §1, §2

E. faecalis ES01 = assay: microbe, parasite or virus in culture; format: cell-based; conditions: Enterococcus faecalis
Experimental: as §1, §2

A. baumannii AB11 = assay: microbe, parasite or virus in culture; format: cell-based; conditions: Acinetobacter baumannii; Table 1; A. baumannii AB11; broth microdilution; read-out: MIC
Experimental: as §1, §2

E. faecium MC38 = assay: microbe, parasite or virus in culture; format: cell-based; conditions: Enterococcus faecium
Experimental: as §1, §2

E. faecium QF31 = assay: microbe, parasite or virus in culture; format: cell-based; conditions: Enterococcus faecium
Experimental: as §1, §2

E. faecium HFY01 = assay: microbe, parasite or virus in culture; format: cell-based; conditions: Enterococcus faecium
Experimental: as §1, §2

E. coli ATCC 25922 = assay: microbe, parasite or virus in culture; format: cell-based; conditions: Escherichia coli, ATCC25922; Table 1; E. coli ATCC 25922; broth microdilution; read-out: MIC
Experimental: as §1, §2

S. suis SH0918 = assay: microbe, parasite or virus in culture; format: cell-based; conditions: Streptococcus suis
Experimental: as §1, §2

E. faecalis J2 = assay: microbe, parasite or virus in culture; format: cell-based; conditions: Enterococcus faecalis
Experimental: as §1, §2

S. aureus ATCC 29213 = assay: microbe, parasite or virus in culture; format: cell-based; conditions: Staphylococcus aureus, ATCC29213
[1] = Table 1, E. faecalis SF23-1, ermB, tetL, cfr, broth microdilution, read-out: MIC
[2] = Table 1, S. pyogenes DL02, ermB, broth microdilution, read-out: MIC
[3] = Table 1, S. aureus M147-2, ermB, tetL, cfr, broth microdilution, read-out: MIC
[4] = Table 1, S. agalactiae DL03, ermB, broth microdilution, read-out: MIC
[5] = Table 1, S. aureus YZSA-24, ermC, mecA, broth microdilution, read-out: MIC
[6] = Table 1, S. aureus YZSA-15, ermC, vanB, broth microdilution, read-out: MIC
[7] = Table 1, S. aureus M92-1, ermB, tetL, optrA, broth microdilution, read-out: MIC
[8] = Table 1, E. faecalis JH2-2, broth microdilution, read-out: MIC
[9] = Table 1, S. aureus YZSA-21, ermC, broth microdilution, read-out: MIC
[10] = Table 1, E. faecalis ES01, ermB, vanB, broth microdilution, read-out: MIC
[11] = Table 1, E. faecium MC38, ermB, optrA, broth microdilution, read-out: MIC
[12] = Table 1, E. faecium QF31, ermB, cfr, broth microdilution, read-out: MIC
[13] = Table 1, E. faecium HFY01, broth microdilution, read-out: MIC
[14] = Table 1, S. suis SH0918, ermB, tetO, optrA, broth microdilution, read-out: MIC
[15] = Table 1, E. faecalis J2, ermB, optrA, broth microdilution, read-out: MIC
[16] = Table 1, S. aureus ATCC 29213, broth microdilution, CLSI M100-ED34, read-out: MIC

Row | Compound | MIC (S. suis P1/7) | MIC (S. enteritis S1) | MIC (E. faecalis SF23-1; [1]) | MIC (P. aeruginosa PA14) | MIC (S. pyogenes DL02; [2]) | MIC (S. aureus M147-2; [3]) | MIC (K. pneumoniae 9-1) | MIC (S. agalactiae DL03; [4]) | MIC (S. aureus YZSA-24; [5]) | MIC (S. aureus YZSA-15; [6]) | MIC (A. baumannii 7979) | MIC (S. aureus M92-1; [7]) | MIC (E. faecalis JH2-2; [8]) | MIC (S. aureus YZSA-21; [9]) | MIC (E. faecalis ES01; [10]) | MIC (E. faecium MC38; [11]) | MIC (E. faecium QF31; [12]) | MIC (E. faecium HFY01; [13]) | MIC (S. suis SH0918; [14]) | MIC (E. faecalis J2; [15]) | further results
1 | CCC[C@@H]1C[C@@H](C(=O)N[C@@H]([C@H]2O[C@H](SC)[C@H](O)[C@@H](O)[C@H]2O)[C@H](C)Cl)N(C)C1 [CLI, clindamycin] | 0.125 µg/mL (≈ 0.294 µM) | > 64 µg/mL | > 64 µg/mL | > 64 µg/mL | > 64 µg/mL | > 64 µg/mL | > 64 µg/mL | > 64 µg/mL | > 64 µg/mL | > 64 µg/mL | > 64 µg/mL | > 64 µg/mL | 0.5 µg/mL (≈ 1.18 µM) | > 64 µg/mL | > 64 µg/mL | > 64 µg/mL | > 64 µg/mL | 0.5 µg/mL (≈ 1.18 µM) | > 64 µg/mL | > 64 µg/mL | MIC (P. aeruginosa PAO1): > 64 µg/mL; MIC (A. baumannii AB11): 0.5 µg/mL (≈ 1.18 µM); MIC (E. coli ATCC 25922): > 64 µg/mL; MIC (S. aureus ATCC 29213): 0.125 µg/mL (≈ 0.294 µM)
2 | C[C@H]1c2cccc(O)c2C(=O)C2=C(O)[C@]3(O)C(=O)C(C(N)=O)=C(O)[C@@H](N(C)C)[C@@H]3[C@@H](O)[C@@H]21 [DOX, doxycycline] | 0.125 µg/mL (≈ 0.281 µM) | > 64 µg/mL | 16 µg/mL (≈ 36 µM) | 16 µg/mL (≈ 36 µM) | 2 µg/mL (≈ 4.5 µM) | 16 µg/mL (≈ 36 µM) | > 64 µg/mL | < 0.06 µg/mL | 0.5 µg/mL (≈ 1.13 µM) | 0.25 µg/mL (≈ 0.563 µM) | > 64 µg/mL | 16 µg/mL (≈ 36 µM) | 4 µg/mL (≈ 9 µM) | 0.25 µg/mL (≈ 0.563 µM) | 0.5 µg/mL (≈ 1.13 µM) | 16 µg/mL (≈ 36 µM) | 16 µg/mL (≈ 36 µM) | < 0.06 µg/mL | 16 µg/mL (≈ 36 µM) | 16 µg/mL (≈ 36 µM) | MIC (P. aeruginosa PAO1): 8 µg/mL (≈ 18 µM); MIC (A. baumannii AB11): < 0.06 µg/mL; MIC (E. coli ATCC 25922): 1 µg/mL (≈ 2.25 µM); MIC (S. aureus ATCC 29213; [16]): 0.25 µg/mL (≈ 0.563 µM)
3 | CN[C@H](CC(C)C)C(=O)N[C@H]1C(=O)N[C@@H](CC(N)=O)C(=O)N[C@H]2C(=O)N[C@H]3C(=O)N[C@H](C(=O)N[C@H](C(=O)O)c4cc(O)cc(O)c4-c4cc3ccc4O)[C@H](O)c3ccc(c(Cl)c3)Oc3cc2cc(c3O[C@@H]2O[C@H](CO)[C@@H](O)[C@H](O)[C@H]2O[C@H]2C[C@](C)(N)[C@H](O)[C@H](C)O2)Oc2ccc(cc2Cl)[C@H]1O [VAN, vancomycin] | < 0.06 µg/mL | – | – | – | – | – | – | – | – | – | – | – | – | – | – | – | – | – | – | – | MIC (E. faecalis SF23-1): 2 µg/mL (≈ 1.38 µM); MIC (S. pyogenes DL02; DL02): < 0.06 µg/mL; MIC (S. aureus M147-2): 0.5 µg/mL (≈ 0.345 µM); MIC (S. agalactiae DL03; DL03): 0.125 µg/mL (≈ 0.0863 µM); MIC (S. aureus YZSA-24): < 0.06 µg/mL; MIC (S. aureus YZSA-15): 16 µg/mL (≈ 11 µM); MIC (S. aureus M92-1): 1 µg/mL (≈ 0.69 µM); MIC (E. faecalis JH2-2): 2 µg/mL (≈ 1.38 µM); MIC (S. aureus YZSA-21): 1 µg/mL (≈ 0.69 µM); MIC (E. faecalis ES01; ES01): 16 µg/mL (≈ 11 µM); MIC (E. faecium MC38; MC38): 2 µg/mL (≈ 1.38 µM); MIC (E. faecium QF31; QF31): 2 µg/mL (≈ 1.38 µM); MIC (E. faecium HFY01; HFY01): 0.5 µg/mL (≈ 0.345 µM); MIC (S. suis SH0918; SH0918): < 0.06 µg/mL; MIC (E. faecalis J2; J2): 2 µg/mL (≈ 1.38 µM); MIC (S. aureus ATCC 29213): 1 µg/mL (≈ 0.69 µM)
4 | CC(=O)NC[C@H]1CN(c2ccc(N3CCOCC3)c(F)c2)C(=O)O1 [LZD, linezolid] | 0.125 µg/mL (≈ 0.371 µM) | – | 16 µg/mL (≈ 47.4 µM) | – | < 0.06 µg/mL | 8 µg/mL (≈ 23.7 µM) | – | 1 µg/mL (≈ 2.96 µM) | 0.5 µg/mL (≈ 1.48 µM) | 0.5 µg/mL (≈ 1.48 µM) | – | 8 µg/mL (≈ 23.7 µM) | 0.5 µg/mL (≈ 1.48 µM) | 1 µg/mL (≈ 2.96 µM) | 2 µg/mL (≈ 5.93 µM) | 2 µg/mL (≈ 5.93 µM) | 2 µg/mL (≈ 5.93 µM) | 2 µg/mL (≈ 5.93 µM) | 8 µg/mL (≈ 23.7 µM) | 8 µg/mL (≈ 23.7 µM) | MIC (S. aureus ATCC 29213; [16]): 1 µg/mL (≈ 2.96 µM)
